Where only a bound is given, the exact number is not on record here.

Assay [1] concerns the target T1, Prostaglandin G/H synthase 1 (Ovis aries, UniProt P05979).
T1 sequence (P05979 whole entry): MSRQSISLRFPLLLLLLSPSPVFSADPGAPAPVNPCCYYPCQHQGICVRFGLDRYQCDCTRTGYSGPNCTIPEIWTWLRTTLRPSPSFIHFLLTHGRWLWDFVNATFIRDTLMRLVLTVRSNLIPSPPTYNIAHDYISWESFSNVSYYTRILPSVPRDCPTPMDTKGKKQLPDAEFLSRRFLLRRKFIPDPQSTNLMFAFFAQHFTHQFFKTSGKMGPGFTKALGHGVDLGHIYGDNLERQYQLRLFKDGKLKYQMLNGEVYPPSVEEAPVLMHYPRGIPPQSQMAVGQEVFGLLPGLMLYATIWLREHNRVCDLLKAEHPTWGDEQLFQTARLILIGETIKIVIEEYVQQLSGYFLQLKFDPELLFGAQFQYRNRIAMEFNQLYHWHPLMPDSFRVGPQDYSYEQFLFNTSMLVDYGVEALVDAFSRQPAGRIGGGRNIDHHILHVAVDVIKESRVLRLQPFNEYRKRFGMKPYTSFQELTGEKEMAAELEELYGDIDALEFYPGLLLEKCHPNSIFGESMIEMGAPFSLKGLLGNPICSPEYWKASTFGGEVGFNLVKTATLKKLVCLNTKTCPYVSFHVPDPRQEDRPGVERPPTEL
Kind of assay: COX Enzyme Inhibition Assay (Table 1).

The target of assay [2] is T2, Prostaglandin G/H synthase 2 (Mus musculus, UniProt Q05769).
T2 sequence (Q05769 whole entry): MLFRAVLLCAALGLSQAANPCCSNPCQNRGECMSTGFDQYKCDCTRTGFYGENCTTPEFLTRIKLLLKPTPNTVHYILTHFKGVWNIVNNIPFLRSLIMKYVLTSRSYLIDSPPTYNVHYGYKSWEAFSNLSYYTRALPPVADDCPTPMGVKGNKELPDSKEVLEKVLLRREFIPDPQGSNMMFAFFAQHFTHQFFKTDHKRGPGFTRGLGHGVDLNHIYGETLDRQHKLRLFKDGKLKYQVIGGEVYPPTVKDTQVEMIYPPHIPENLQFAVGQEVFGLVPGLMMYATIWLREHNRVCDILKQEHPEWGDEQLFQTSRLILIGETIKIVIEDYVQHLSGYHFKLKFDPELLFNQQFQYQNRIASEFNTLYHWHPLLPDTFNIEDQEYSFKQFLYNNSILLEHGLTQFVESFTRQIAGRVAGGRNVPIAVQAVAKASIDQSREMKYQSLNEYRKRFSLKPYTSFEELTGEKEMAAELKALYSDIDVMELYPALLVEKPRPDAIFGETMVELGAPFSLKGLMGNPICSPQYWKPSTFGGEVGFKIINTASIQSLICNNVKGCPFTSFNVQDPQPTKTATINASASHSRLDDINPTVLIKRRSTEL
Kind of assay: COX Enzyme Inhibition Assay (Table 1).

In the case of `COc1ccc2c(c1)c(CC(=O)O[C@@H](C(=O)O[C@H]1C[C@@]3(O)[C@@H](OC(=O)c4ccccc4)[C@@H]4[C@]5(OC(C)=O)CO[C@@H]5C[C@H](O)[C@@]4(C)C(=O)[C@H](OC(C)=O)C(=C1C)C3(C)C)[C@@H](NC(=O)c1ccccc1)c1ccccc1)c(C)n2C(=O)c1ccc(Cl)cc1` [Cytotoxic conjugates, 1], the IC50 in assay [1] and in assay [2] was more than 25 µM throughout.

In the case of `COc1ccc2c(c1)c(CC(=O)NCCCCOC(=O)CCC(=O)O[C@@H](C(=O)O[C@H]1C[C@@]3(O)[C@@H](OC(=O)c4ccccc4)[C@@H]4[C@]5(OC(C)=O)CO[C@@H]5C[C@H](O)[C@@]4(C)C(=O)[C@H](OC(C)=O)C(=C1C)C3(C)C)[C@@H](NC(=O)c1ccccc1)c1ccccc1)c(C)n2C(=O)c1ccc(Cl)cc1` [Cytotoxic conjugates, 3], the 50% inhibitory concentration (IC50) in assay [1] was more than 25 µM.

In assay [1], `COc1ccc2c(c1)c(CC(=O)Nc1ccc(CNC(=O)CCC(=O)O[C@@H](C(=O)O[C@H]3C[C@@]4(O)[C@@H](OC(=O)c5ccccc5)[C@@H]5[C@]6(OC(C)=O)CO[C@@H]6C[C@H](O)[C@@]5(C)C(=O)[C@H](OC(C)=O)C(=C3C)C4(C)C)[C@@H](NC(=O)c3ccccc3)c3ccccc3)cc1)c(C)n2C(=O)c1ccc(Cl)cc1` [Cytotoxic conjugates, 4] yielded an IC50 of more than 25 µM.

Compound `COc1ccc2c(c1)c(CC(=O)NCCOC(=O)\C=C(C)/C=C/C=C(C)/C=C/C1=C(C)CCCC1(C)C)c(C)n2C(=O)c1ccc(Cl)cc1` [Cytotoxic conjugates, 5] came in with a half-maximal inhibitory concentration (IC50) in assay [1] of more than 25 µM.

Consider `COc1ccc2c(c1)c(CC(=O)NCCNC(=O)/C=C(C)/C=C/C=C(C)/C=C/C1=C(C)CCCC1(C)C)c(C)n2C(=O)c1ccc(Cl)cc1` [Cytotoxic conjugates, 6], for which the 50% inhibitory concentration (IC50) in assay [1] was more than 25 µM; in assay [2], 0.1 µM.

Consider `COc1ccc2c(c1)c(CC(=O)NCCNC(=O)/C=C(C)/C=C/C=C(C)\C=C\C1=C(C)CCCC1(C)C)c(C)n2C(=O)c1ccc(Cl)cc1` [Cytotoxic conjugates, 7], for which the 50% inhibitory concentration (IC50) is more than 25 µM in assay [1] and 0.6 µM in assay [2].

In assay [1], `COc1ccc2c(c1)c(CC(=O)NCCNC(=O)CCC(=O)Nc1ccc(S(=O)(=O)Nc3nccs3)cc1)c(C)n2C(=O)c1ccc(Cl)cc1` [Cytotoxic conjugates, 8] gave an IC50 of more than 25 µM.

For the compound `COc1ccc2c(c1)c(CCNC(=O)CCC(=O)Nc1ccc(S(=O)(=O)Nc3nccs3)cc1)c(C)n2Cc1ccc(Br)cc1` [Cytotoxic conjugates, 9], the half-inhibitory concentration (IC50) in assay [1] and in assay [2] was more than 25 µM throughout.

For `CCC1(O)C(=O)OCc2c1cc1n(c2=O)Cc2cc3cc(OC(=O)CCC(=O)OCCNC(=O)Cc4c(C)n(C(=O)c5ccc(Cl)cc5)c5ccc(OC)cc45)ccc3nc2-1` (stereo unspecified) [Cytotoxic conjugates, 10], the IC50 in assay [1] and in assay [2] was more than 25 µM throughout.

Regarding `COc1ccc2c(c1)c(CC(=O)NCCNC(=O)CCC(=O)O[C@@H]1c3cc4c(cc3[C@H](c3cc(OC)c(OC)c(OC)c3)[C@@H]3C(=O)OCC13)OCO4)c(C)n2C(=O)c1ccc(Cl)cc1` (stereo partly specified) [Cytotoxic conjugates, 11], the values for the half-maximal inhibitory concentration (IC50) in assay [1] and in assay [2] were more than 25 µM and 0.47 µM, respectively.

Consider `COc1ccc2c(c1)c(CC(=O)NCCCCOC(=O)CCC(=O)O[C@@H]1c3cc4c(cc3[C@H](c3cc(OC)c(OC)c(OC)c3)[C@@H]3C(=O)OCC13)OCO4)c(C)n2C(=O)c1ccc(Cl)cc1` (stereo partly specified) [Cytotoxic conjugates, 14], for which the IC50 in assay [1] was more than 25 µM.

In turn, `COc1ccc2c(c1)c(CC(=O)NCc1ccc(CNC(=O)CCC(=O)O[C@@H]3c4cc5c(cc4[C@H](c4cc(OC)c(OC)c(OC)c4)[C@@H]4C(=O)OCC34)OCO5)cc1)c(C)n2C(=O)c1ccc(Cl)cc1` (stereo partly specified) [Cytotoxic conjugates, 15] came in with an IC50 in assay [1] of more than 25 µM.

`COc1ccc2c(c1)c(CC(=O)NCCCCNC(=O)CCC(=O)OC1CCCCC1)c(C)n2C(=O)c1ccc(Cl)cc1` [Cytotoxic conjugates, 16]: the 50% inhibitory concentration (IC50) in assay [1] was more than 25 µM.

`COc1cc([C@@H]2c3cc4c(cc3[C@H](O)[C@H]3COC(=O)[C@H]23)OCO4)cc(OC)c1OC` [podophyllotoxin]: the IC50 in assay [1] and in assay [2] was more than 25 µM throughout.

Source of the values: BindingDB's records for doi:10.1021/acschembio.6b00560 (Vanderbilt Institute of Chemical Biology, Vanderbilt …, 2016).
